Experimental findings from PubChem BioAssay (NCI) are described below.

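Protocol summary: plate cells (96-well), add compound at 5 concentrations, incubate 48 h, interpolate endpoints linearly. TGI denotes the concentration required for complete inhibition of growth.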

Test systems include EKVX NSCLC; COLO 205 colon; SNB-75 CNS; NCI/ADR-RES ovarian; UO-31 renal; NCI-H226 lung; SF-539 CNS; UACC-62 melanoma; NCI-H460 lung; HCC-2998 colon; TK-10 renal; UACC-257 melanoma; DU-145 prostate; IGROV1 ovarian; NCI-H23 lung; K-562 leukemia; RPMI-8226 leukemia.
Common to all, as to experiment: growth of human tumour cells (NCI), 48 h

For the compound `CC(=O)Nc1ccc(C(O)/C(=N/N)c2nc3ccc(Cl)cc3[nH]c2=O)cc1` (stereo not drawn), the TGI in the test on EKVX NSCLC, in the test with COLO 205 colon, with SNB-75 CNS, in the test with NCI/ADR-RES ovarian, in the test on UO-31 renal and with NCI-H226 lung was more than 100 µM in each case. Also, the TGI in the test on SF-539 CNS, in the test with UACC-62 melanoma, in the test with NCI-H460 lung, with HCC-2998 colon, in the test with TK-10 renal and with UACC-257 melanoma was more than 100 µM each time. Further, the TGI in the test on DU-145 prostate, in the test on IGROV1 ovarian and with NCI-H23 lung was more than 100 µM throughout.
In the case of `O=c1[nH]cc(-c2c[nH]c3ccccc23)nc1-c1c[nH]c2ccccc12`, the TGI was found to be 24.6 µM with EKVX NSCLC; 23.2 µM in the test with COLO 205 colon; 23.7 µM with SNB-75 CNS; 49.8 µM in the test with NCI/ADR-RES ovarian; 29.8 µM with UO-31 renal; 55.5 µM in the test on SF-539 CNS. In addition, the TGI amounted to 23.7 µM in the test with UACC-62 melanoma; 43.4 µM with NCI-H460 lung; 21.6 µM in the test with HCC-2998 colon; 9.21 µM in the test with K-562 leukemia; 30.5 µM in the test on TK-10 renal; 43.8 µM in the test with RPMI-8226 leukemia. Further, the TGI in the test on UACC-257 melanoma turned out to be 26.9 µM; in the test on DU-145 prostate, 28.1 µM; in the test with IGROV1 ovarian, 14.6 µM; in the test with NCI-H23 lung it was 31.5 µM.
Turning to `CCC(CCCN)Nc1cc(OC)cc2c(C)ccnc12` (stereo not drawn), the TGI is 36.3 µM in the test with EKVX NSCLC; 47.5 µM in the test on COLO 205 colon; 25.3 µM with SNB-75 CNS; 76.4 µM in the test with NCI/ADR-RES ovarian; 25.6 µM in the test with UO-31 renal; 28.3 µM in the test on NCI-H226 lung. For the same compound, the TGI in the test on SF-539 CNS amounted to 33.4 µM; in the test on NCI-H460 lung, 32.3 µM; in the test with HCC-2998 colon it was 44.9 µM; with K-562 leukemia, 39.5 µM; with TK-10 renal, 31.7 µM; with UACC-257 melanoma, 33.7 µM. The TGI with DU-145 prostate turned out to be 35.5 µM; in the test on IGROV1 ovarian it was 36.6 µM.
For the compound `CCC(C=O)P1(=O)OC(C)(C)CN1C(C)(C)C` (stereo not drawn), the TGI in the test on EKVX NSCLC, with COLO 205 colon, in the test with NCI/ADR-RES ovarian, with UO-31 renal, in the test on NCI-H226 lung and in the test with SF-539 CNS was more than 100 µM in each case. In addition, the TGI with UACC-62 melanoma, with NCI-H460 lung, with HCC-2998 colon, in the test on K-562 leukemia, in the test with TK-10 renal and with RPMI-8226 leukemia was more than 100 µM in each case. Moreover, the TGI with UACC-257 melanoma, with DU-145 prostate, in the test on IGROV1 ovarian and in the test on NCI-H23 lung was more than 100 µM throughout.
Regarding `CC(C)(C)OC(=O)N/N=C(/N)Cc1ccc(Cl)cc1`, the TGI in the test with EKVX NSCLC, in the test on COLO 205 colon, in the test on SNB-75 CNS, with NCI/ADR-RES ovarian, in the test on UO-31 renal and in the test with NCI-H226 lung was more than 100 µM throughout. The TGI in the test on UACC-62 melanoma, with NCI-H460 lung, with HCC-2998 colon, in the test with K-562 leukemia, with TK-10 renal and with UACC-257 melanoma was more than 100 µM throughout. Moreover, the TGI with DU-145 prostate and in the test on IGROV1 ovarian was more than 100 µM each time.
As to `CC(=O)C1C(=O)C(=O)N(c2cccc([N+](=O)[O-])c2)C1=O` (stereo not drawn), the TGI in the test with EKVX NSCLC, in the test with COLO 205 colon, in the test on SNB-75 CNS, in the test with NCI/ADR-RES ovarian, in the test on UO-31 renal and in the test with NCI-H226 lung was more than 100 µM in each case. Also, the TGI in the test on SF-539 CNS, with UACC-62 melanoma, in the test on NCI-H460 lung, with HCC-2998 colon, with TK-10 renal and in the test with UACC-257 melanoma was more than 100 µM throughout. The TGI with DU-145 prostate, with IGROV1 ovarian and in the test with NCI-H23 lung was more than 100 µM each time.
`CN(C)c1ccc(NN=C2SC(=Nc3ccccc3)C(=Nc3ccccc3)S2)cc1`: the TGI in the test with EKVX NSCLC, in the test on COLO 205 colon, in the test on SNB-75 CNS, with NCI/ADR-RES ovarian, in the test on UO-31 renal and in the test on NCI-H226 lung was more than 100 µM throughout. In addition, the TGI in the test with SF-539 CNS, with UACC-62 melanoma, in the test with NCI-H460 lung, in the test with HCC-2998 colon, with TK-10 renal and in the test on RPMI-8226 leukemia was more than 100 µM in each case. The TGI in the test with UACC-257 melanoma, with DU-145 prostate, in the test with IGROV1 ovarian and in the test on NCI-H23 lung was more than 100 µM each time.
On to `O=C(NC1CCCCC1NC(c1ccccc1)(c1ccccc1)c1ccccc1)C(=O)NC1CCCCC1NC(c1ccccc1)(c1ccccc1)c1ccccc1` (stereo not drawn), for which the TGI was more than 100 µM with EKVX NSCLC; more than 100 µM with COLO 205 colon; 8.65 µM in the test with SNB-75 CNS; more than 100 µM with NCI/ADR-RES ovarian; more than 100 µM with UO-31 renal; more than 100 µM with NCI-H226 lung. Moreover, the TGI with SF-539 CNS, in the test on NCI-H460 lung, in the test on HCC-2998 colon, in the test with K-562 leukemia, with TK-10 renal and in the test on RPMI-8226 leukemia was more than 100 µM each time. The TGI in the test on UACC-257 melanoma, in the test on DU-145 prostate, with IGROV1 ovarian and in the test on NCI-H23 lung was more than 100 µM throughout.
On to `Cn1c(=O)c2c(nc3n2CC(=O)N3CCCCl)n(C)c1=O`, for which the TGI in the test on EKVX NSCLC, in the test on COLO 205 colon, with SNB-75 CNS, with NCI/ADR-RES ovarian, in the test on UO-31 renal and with NCI-H226 lung was more than 100 µM throughout. Moreover, the TGI with UACC-62 melanoma, in the test on NCI-H460 lung, in the test on HCC-2998 colon, in the test with K-562 leukemia, in the test on TK-10 renal and in the test with RPMI-8226 leukemia was more than 100 µM throughout. Besides, the TGI in the test with UACC-257 melanoma, in the test on DU-145 prostate, in the test with IGROV1 ovarian and with NCI-H23 lung was more than 100 µM throughout.
